The record followed here is ChEMBL document CHEMBL1275582, “Role of the Ser-287-Asn replacement in the hydrolysis spectrum extension of AmpC beta-lactamases in Escherichia coli” (2009).

Experiment [1] concerns Escherichia coli. As to the kind of experiment: Activity of Escherichia coli TOP10 beta-lactamase AmpC-A S287N mutant.
Experiment [2] deals with Escherichia coli. As to the kind of experiment: Antibacterial activity against Escherichia coli TOP10 expressing AmpC-A by agar dilution method. The format is functional. (In general: Agar dilution tests growth on a series of plates holding different concentrations.)
The subject of experiment [3] is Escherichia coli. As to the kind of experiment: Antibacterial activity against Escherichia coli TOP10 expressing AmpC-B2 by agar dilution method. The class given is functional.
The subject of experiment [4] is Escherichia coli. As to the kind of experiment: Activity of Escherichia coli TOP10 beta-lactamase AmpC-B2 S287N mutant.
In experiment [5] the test system is Escherichia coli. As to the kind of experiment: Antibacterial activity against Escherichia coli TOP10 expressing AmpC-A S287N mutant protein by agar dilution method. The class given is functional.
Experiment [6] relates to Escherichia coli. Briefly: Antibacterial activity against Escherichia coli TOP10 by agar dilution method. The format is functional.
The test system of experiment [7] is Escherichia coli. As to the kind of experiment: Activity of Escherichia coli TOP10 beta-lactamase AmpC-B2.
The subject of experiment [8] is Escherichia coli. As to the kind of experiment: Activity of Escherichia coli TOP10 beta-lactamase AmpC-A.
For experiment [9], the system named is Escherichia coli. As to the kind of experiment: Antibacterial activity against Escherichia coli TOP10 expressing AmpC-B2 S287N mutant protein by agar dilution method. The format is functional.
Experiment [10] relates to Escherichia coli. Briefly: Antibacterial activity against Escherichia coli TOP10 expressing AmpC-B2 by agar dilution method in presence of 4 mg/liter Tazobactam. The class given is functional.
Experiment [11] relates to Escherichia coli. As to the kind of experiment: Antibacterial activity against Escherichia coli TOP10 expressing AmpC-A S287N mutant protein by agar dilution method in presence of 4 mg/liter Tazobactam. The class given is functional.
Experiment [12] concerns Escherichia coli. As to the kind of experiment: Antibacterial activity against Escherichia coli TOP10 expressing AmpC-B2 S287N mutant protein by agar dilution method in presence of 4 mg/liter Tazobactam. The class given is functional.
In experiment [13] the test system is Escherichia coli. Briefly: Antibacterial activity against Escherichia coli TOP10 by agar dilution method in presence of 4 mg/liter Tazobactam. The class given is functional.
Experiment [14] concerns Escherichia coli. Briefly: Antibacterial activity against Escherichia coli TOP10 expressing AmpC-A by agar dilution method in presence of 4 mg/liter Tazobactam. The class given is functional.
Experiment [15] concerns Escherichia coli. As to the kind of experiment: Antibacterial activity against Escherichia coli TOP10 expressing AmpC-A S287N mutant protein by agar dilution method in presence of 2 mg/liter clavulanic acid. The class given is functional.
Experiment [16] deals with Escherichia coli. Briefly: Antibacterial activity against Escherichia coli TOP10 expressing AmpC-B2 by agar dilution method in presence of 2 mg/liter clavulanic acid. The format is functional.
Experiment [17] deals with Escherichia coli. Briefly: Antibacterial activity against Escherichia coli TOP10 expressing AmpC-A by agar dilution method in presence of 2 mg/liter clavulanic acid. The format is functional.
In experiment [18] the test system is Escherichia coli. As to the kind of experiment: Antibacterial activity against Escherichia coli TOP10 expressing AmpC-B2 S287N mutant protein by agar dilution method in presence of 2 mg/liter clavulanic acid. The class given is functional.
Experiment [19] relates to Escherichia coli. As to the kind of experiment: Antibacterial activity against Escherichia coli TOP10 by agar dilution method in presence of 2 mg/liter clavulanic acid. The format is functional.

Usually kcat stands for the number of substrate molecules converted per active site and unit of time at saturation. A word on the MIC: it is the least concentration at which growth counts as inhibited. What is called Km is the substrate concentration at which the rate is half of its maximum.

Molecules are shown by their SMILES. ≈ marks a conversion by molar mass, not a printed value.

`CO/N=C(\C(=O)N[C@@H]1C(=O)N2C(C(=O)[O-])=C(C[N+]3(C)CCCC3)CS[C@H]12)c1csc(N)n1` [CEFEPIME]: the kcat with Escherichia coli [1] amounted to 1.35 s⁻¹; with Escherichia coli [4] it was 0.25 s⁻¹. In addition, the MIC against Escherichia coli [2] came out at 0.06 µg/mL (≈ 0.125 µM); against Escherichia coli [3], 0.06 µg/mL (≈ 0.125 µM); in the experiment with Escherichia coli [5], 16 µg/mL (≈ 33.3 µM).

For `CO[C@@]1(NC(=O)Cc2cccs2)C(=O)N2C(C(=O)O)=C(COC(N)=O)CS[C@@H]21` [CEFOXITIN], the Km came out at 700 µM with Escherichia coli [1], 1.5 µM with Escherichia coli [7], 1 µM with Escherichia coli [8] and 800 µM in the experiment with Escherichia coli [4]. In addition, the kcat stood at 0.1 s⁻¹ in the experiment with Escherichia coli [1], 0.4 s⁻¹ in the experiment with Escherichia coli [7], 0.3 s⁻¹ with Escherichia coli [8] and 0.08 s⁻¹ in the experiment with Escherichia coli [4]. Also, the MIC turned out to be 2 µg/mL (≈ 4.68 µM) in the experiment on Escherichia coli [6]; 128 µg/mL (≈ 299 µM) against Escherichia coli [2]; 128 µg/mL (≈ 299 µM) against Escherichia coli [3]; 128 µg/mL (≈ 299 µM) against Escherichia coli [9]; 32 µg/mL (≈ 74.9 µM) in the experiment with Escherichia coli [5].

On to `O=C(Cc1cccs1)N[C@@H]1C(=O)N2C(C(=O)[O-])=C(C[n+]3ccccc3)CS[C@H]12`, for which the kcat turned out to be 50 s⁻¹ in the experiment with Escherichia coli [1], 240 s⁻¹ in the experiment on Escherichia coli [7], 230 s⁻¹ with Escherichia coli [8] and 112 s⁻¹ with Escherichia coli [4].

Regarding `C[C@@H](O)[C@H]1C(=O)N2C(C(=O)O)=C(SCCNC=N)C[C@H]12` [IMIPENEM ANHYDROUS], the Km with Escherichia coli [1] was determined as 200 µM; with Escherichia coli [7], 32 µM; in the experiment on Escherichia coli [4], 2000 µM. The results for the kcat in the experiment on Escherichia coli [1], in the experiment on Escherichia coli [7] and with Escherichia coli [4] were 0.06 s⁻¹, 0.09 s⁻¹ and 0.06 s⁻¹, respectively. Also, the MIC with Escherichia coli [2], against Escherichia coli [3], against Escherichia coli [9] and with Escherichia coli [5] was 0.06 µg/mL (≈ 0.2 µM) throughout.

As for `C[C@H]1[C@H](NC(=O)/C(=N\OC(C)(C)C(=O)O)c2csc(N)n2)C(=O)N1S(=O)(=O)O` [AZTREONAM], the MIC against Escherichia coli [2] is 0.125 µg/mL (≈ 0.287 µM); in the experiment on Escherichia coli [3] it was 0.06 µg/mL (≈ 0.138 µM); in the experiment on Escherichia coli [5] it was 16 µg/mL (≈ 36.7 µM).

Consider `CCN1CCN(C(=O)N[C@@H](C(=O)N[C@@H]2C(=O)N3[C@@H]2SC(C)(C)[C@@H]3C(=O)O)c2ccccc2)C(=O)C1=O` [PIPERACILLIN], for which the MIC in the experiment on Escherichia coli [10] came to 4 µg/mL; with Escherichia coli [11] it was 8 µg/mL; with Escherichia coli [6], 1 µg/mL (≈ 1.93 µM); against Escherichia coli [2], 4 µg/mL (≈ 7.73 µM); with Escherichia coli [12], 4 µg/mL; in the experiment with Escherichia coli [3], 2 µg/mL (≈ 3.86 µM). The MIC against Escherichia coli [9] turned out to be 4 µg/mL (≈ 7.73 µM); against Escherichia coli [5], 8 µg/mL (≈ 15.5 µM); in the experiment with Escherichia coli [13], 1 µg/mL; with Escherichia coli [14], 4 µg/mL.

As to `CO/N=C(\C(=O)N[C@@H]1C(=O)N2C(C(=O)O)=C(COC(C)=O)CS[C@H]12)c1csc(N)n1` [CEFOTAXIME], the Km with Escherichia coli [1] was found to be 100 µM; in the experiment on Escherichia coli [7], 45 µM; with Escherichia coli [8] it was 25 µM; in the experiment with Escherichia coli [4] it was 1000 µM. In addition, the kcat in the experiment on Escherichia coli [1] was 0.08 s⁻¹; with Escherichia coli [7], 0.1 s⁻¹; in the experiment with Escherichia coli [8], 0.2 s⁻¹; with Escherichia coli [4] it was 0.045 s⁻¹. Also, the MIC stood at 0.06 µg/mL (≈ 0.132 µM) against Escherichia coli [6]; 1 µg/mL (≈ 2.2 µM) in the experiment on Escherichia coli [2]; 0.5 µg/mL (≈ 1.1 µM) against Escherichia coli [3]; 1 µg/mL (≈ 2.2 µM) with Escherichia coli [9]; 16 µg/mL (≈ 35.1 µM) in the experiment with Escherichia coli [5].

`CC(=O)OCC1=C(C(=O)O)N2C(=O)[C@@H](NC(=O)Cc3cccs3)[C@H]2SC1` [CEPHALOTHIN]: the Km in the experiment with Escherichia coli [1] turned out to be 5500 µM; in the experiment on Escherichia coli [7], 85 µM; in the experiment on Escherichia coli [8] it was 30 µM. Also, the kcat in the experiment on Escherichia coli [1] was determined as 65 s⁻¹; with Escherichia coli [7], 540 s⁻¹; in the experiment on Escherichia coli [8], 500 s⁻¹; in the experiment with Escherichia coli [4], 10 s⁻¹. Also, the MIC was 2 µg/mL (≈ 5.04 µM) against Escherichia coli [6], above 512 µg/mL in the experiment with Escherichia coli [2] and above 512 µg/mL against Escherichia coli [3].

In the case of `CC(C)(O/N=C(\C(=O)N[C@@H]1C(=O)N2C(C(=O)[O-])=C(C[n+]3ccccc3)CS[C@H]12)c1csc(N)n1)C(=O)O` [CEFTAZIDIME], the Km in the experiment with Escherichia coli [1] is 400 µM; in the experiment with Escherichia coli [8], 70 µM; with Escherichia coli [4], 1000 µM. The kcat in the experiment on Escherichia coli [1] came out at 0.2 s⁻¹; in the experiment with Escherichia coli [7], 0.3 s⁻¹; in the experiment with Escherichia coli [8], 0.5 s⁻¹; with Escherichia coli [4], 0.01 s⁻¹. Moreover, the MIC in the experiment on Escherichia coli [6] was 0.06 µg/mL (≈ 0.11 µM); in the experiment with Escherichia coli [2], 2 µg/mL (≈ 3.66 µM); against Escherichia coli [3] it was 1 µg/mL (≈ 1.83 µM); in the experiment with Escherichia coli [9], 4 µg/mL (≈ 7.32 µM); in the experiment with Escherichia coli [5], 512 µg/mL (≈ 937 µM).

In the case of `CC1(C)S[C@@H]2[C@H](NC(=O)[C@H](N)c3ccc(O)cc3)C(=O)N2[C@H]1C(=O)O` [AMOXICILLIN], the MIC was 512 µg/mL with Escherichia coli [15]; 2 µg/mL (≈ 5.47 µM) against Escherichia coli [6]; above 512 µg/mL in the experiment with Escherichia coli [2]; 256 µg/mL in the experiment on Escherichia coli [16]; above 512 µg/mL in the experiment with Escherichia coli [3]; above 512 µg/mL in the experiment with Escherichia coli [17]. Further, the MIC in the experiment with Escherichia coli [18] came to 512 µg/mL; with Escherichia coli [19], 2 µg/mL.

On to `CC1(C)S[C@@H]2[C@H](NC(=O)[C@H](C(=O)O)c3ccsc3)C(=O)N2[C@H]1C(=O)O` [TICARCILLIN], for which the MIC with Escherichia coli [15] stood at 256 µg/mL; in the experiment with Escherichia coli [6], 1 µg/mL (≈ 2.6 µM); in the experiment with Escherichia coli [2], 2 µg/mL (≈ 5.2 µM); in the experiment on Escherichia coli [16], 2 µg/mL; in the experiment with Escherichia coli [3] it was 2 µg/mL (≈ 5.2 µM); in the experiment on Escherichia coli [17], 2 µg/mL. For the same compound, the MIC was 64 µg/mL (≈ 166 µM) with Escherichia coli [9], 256 µg/mL (≈ 666 µM) in the experiment with Escherichia coli [5], 64 µg/mL in the experiment with Escherichia coli [18] and 1 µg/mL with Escherichia coli [19].
